In general, MIC refers to the lowest concentration found to suppress growth. Broadly, the IC50 is the concentration needed to halve the response being measured. A low value points to greater potency.

In assay [1] the test system is Escherichia coli (ATCC25922). The experiment in a line: MIC, broth microdilution (CLSI), Escherichia coli ATCC25922. In general terms: Broth dilution looks for growth in wells or tubes with falling amounts of substance.
Description: Initial minimal inhibitory concentration (MIC) tests were made on two bacterial strains: • Escherichia coli (ATCC25922) • Staphylococcus aureus (ATCC25923).
Minimal Inhibitory Concentration (MIC)
MIC values were determined using the standard broth microdilution procedure based on the guidelines by the Clinical and Laboratory Standards Institute (CLSI). Briefly, the compounds were dissolved in DMSO to 10 mM. They were diluted in cation-adjusted Mueller-Hinton broth (CAMHB) to four times the highest concentration tested. A serial 2-fold dilution in CAMHB was done in microdilution plates. The inoculum of bacterial strain to be tested was prepared by making a suspension of colonies from an 18 to 24 hours old plate in CAMHB. The inoculum was diluted so that, after inoculation, each well contained approximately 5×10^5 CFU/mL. To a volume of 50 μl compound in CAMHB an equal volume of inoculum was added. The tray was sealed in a plastic bag and incubated at 35° C. for 16 to 20 hours. To aid in the detection of growth the dye resazurin was added to a final concentration 0.001% and incubated at room temperature for 1 h. Reduction of resazurin, and therefore bacterial growth, was seen as a change from blue to pink.
The subject of assay [2] is Staphylococcus aureus (ATCC25923). Kind of assay: MIC, broth microdilution (CLSI), Staphylococcus aureus ATCC25923.
The subject of assay [3] is Staphylococcus aureus subsp. aureus (ATCC29213). The experiment in a line: MIC, broth microdilution (CLSI), Staphylococcus aureus subsp. aureus ATCC29213. It is filed as cell-based. The settings on record: ATCC29213, Table 15, read-out: S. aureus ("wound") (MIC).
For assay [4], the system named is E. coli RNase P RNA, M1 RNA. The experiment in a line: Inhibition of bacterial RNase P activity, IC50 determination (cleavage of pATSerUG by M1 RNA). The assay is classed as biochemical. The settings on record: NI = No inhibition.
Setting [5] is: ATCC25922, read-out: E. coli MIC, Table 15, NI = No inhibition.
Where [6] appears, read: ATCC25923, read-out: S. aureus ("Clinical") MIC.
Where [7] appears, read: ATCC25922, read-out: E. coli MIC.

Molecules are shown by their SMILES. Converted amounts (≈) assume the structure as drawn. Counter-ions that a name gives are not always drawn. Like-named read-outs stand apart in the source and are kept apart here.

For `NC1CC(C(=O)Nc2cc(C(F)(F)F)cc3c2Nc2ccccc2S3)CCN1` (stereo not shown) [compound 139, 2-amino-N-(3-(trifluoromethyl)-10H-phenothiazin-1-yl)piperidine-4-carboxamide], the values for the MIC in assay [1] (setting [5]) and in assay [2] (setting [6]) were > 100 µg/mL and 52 µg/mL (≈ 127 µM), respectively.

Regarding `NCC(CCl)Nc1cc(C(F)(F)F)cc2c1Nc1ccccc1S2` (stereo not shown) [compound 178, 3-chloro-N2-(3-(trifluoromethyl)-10H-phenothiazin-1-yl)propane-1,2-diamine], the minimum inhibitory concentration (MIC) in assay [1] (setting [7]) was determined as 48 µg/mL (≈ 128 µM); in assay [2] (ATCC25923, read-out: S. aureus ("Clinical") MIC, Table 15) it was 6 µg/mL (≈ 16.1 µM).

In the case of `NCCN1CCOC[C@H]1C(=O)Nc1cc(C(F)(F)F)cc2c1Nc1ccccc1S2.O=C(O)C(F)(F)F` [compound 157, (S)-4-(2-aminoethyl)-N-(3-(trifluoro-methyl)-10H-phenothiazin-1-yl)morpholine-3-carboxamide 2,2,2-trifluoroacetate], the minimum inhibitory concentration (MIC) in assay [1] (setting [5]) is > 100 µg/mL; in assay [2] (setting [6]), 71 µg/mL.

Regarding `NC1CCCC(CNc2cc(C(F)(F)F)cc3c2Nc2ccccc2O3)C1` (stereo not shown) [compound 164, N-((3-aminocyclohexyl)methyl)-3-(trifluoromethyl)-10H-phenoxazin-1-amine], the results for the MIC in assay [1] (setting [5]) and in assay [2] (setting [6]) were 97 µg/mL (≈ 257 µM) and 24 µg/mL (≈ 63.6 µM), respectively.

Consider `NC1CCCC(CC(=O)Nc2cc(C(F)(F)F)cc3c2Nc2ccccc2S3)C1.O=C(O)C(F)(F)F` (stereo not shown) [compound 165, 2-(3-aminocyclohexyl)-N-(3-(trifluoromethyl)-10H-phenothiazin-1-yl)acetamide 2,2,2-trifluoroacetate], for which the minimum inhibitory concentration (MIC) in assay [1] (setting [5]) was 34 µg/mL; in assay [2] (setting [6]), 17 µg/mL.

With `NC1CCCCC1C(=O)Nc1cc(C(F)(F)F)cc2c1Nc1ccccc1S2` (stereo not shown) [compound 113, 2-amino-N-(3-(trifluoromethyl)-10H-phenothiazin-1-yl)cyclohexane-carboxamide], the minimum inhibitory concentration (MIC) in assay [1] (setting [5]) was > 100 µg/mL; in assay [2] (setting [6]), 7 µg/mL (≈ 17.2 µM).

Regarding `Cc1c(-c2ccc3c(c2)Sc2ccccc2N3CCCN(C)C)[nH]c2ccccc12` [compound 198, N,N-dimethyl-3-(3-(3-methyl-1H-indol-2-yl)-10H-phenothiazin-10-yl)propan-1-amine], the MIC in assay [2] (setting [6]) came to 3 µg/mL (≈ 7.25 µM).

For `NC(Cc1c[nH]c2ccccc12)C(=O)Nc1cc(C(F)(F)F)cc2c1Nc1ccccc1S2` (stereo not shown) [compound 253, 2-amino-3-(1H-indol-3-yl)-N-(3-(trifluoromethyl)-10H-phenothiazin-1-yl)propanamide], the MIC in assay [2] (setting [6]) came out at 2 µg/mL (≈ 4.27 µM).

Turning to `CN(C)CCCN1c2ccc(-c3cc4ccccc4[nH]3)cc2Sc2cc([N+](=O)[O-])ccc21` [compound 241, 3-(3-(1H-indol-2-yl)-7-nitro-10H-phenothiazin-10-yl)-N,N-dimethylpropan-1-amine], the MIC in assay [2] (setting [6]) was 4 µg/mL (≈ 9 µM).

Turning to `NCCCN1c2ccc(N3CCN(CCN)CC3)cc2Sc2cc(C(F)(F)F)ccc21` [compound 266, 3-(3-(4-(2-aminoethyl)piperazin-1-yl)-7-(trifluoromethyl)-10H-phenothiazin-10-yl)propan-1-amine hydrochloride], the minimal inhibitory concentration (MIC) in assay [3] is 16 µg/mL; in assay [1] (setting [7]), 64 µg/mL. In assay [4], half-maximal inhibition (IC50) was put at 31 µM.

With `NCCN1CCC(Nc2cc(C(F)(F)F)cc3c2Nc2ccccc2S3)C1` (stereo not shown) [compound 228, N-(1-(2-aminoethyl)pyrrolidin-3-yl)-3-(trifluoromethyl)-10H-phenothiazin-1-amine], the minimal inhibitory concentration (MIC) was 13 µg/mL (≈ 33 µM) in assay [1] (setting [5]) and 6 µg/mL (≈ 15.2 µM) in assay [2] (setting [6]).

Take `COc1ccc2c(c1)Sc1cc(-c3cc4ccccc4[nH]3)ccc1N2CCCN(C)C` [compound 254, 3-(3-(1H-indol-2-yl)-7-methoxy-10H-phenothiazin-10-yl)-N,N-dimethylpropan-1-amine]: the MIC in assay [2] (setting [6]) came out at 2 µg/mL (≈ 4.66 µM).

Take `Cl.NCCN1CCC(Nc2cc(C(F)(F)F)cc3c2Nc2ccc(N4CC5(CCC5)C4)cc2S3)CC1` [compound 325, N-(1-(2-aminoethyl)piperidin-4-yl)-7-(2-azaspiro [3.3]heptan-2-yl)-3-(trifluoromethyl)-10H-phenothiazin-1-amine hydrochloride]: the results for the MIC in assay [3] and in assay [1] (setting [5]) were 2 µg/mL and 8 µg/mL, respectively. The same compound showed an IC50 in assay [4] of 6.4 µM.

For `NCCNCCN1CCC(Nc2cc(C(F)(F)F)cc3c2Nc2ccccc2S3)CC1` [compound 219, N1-(2-(4-((3-(trifluoromethyl)-10H-phenothiazin-1-yl)amino)piperidin-1-yl)ethyl)ethane-1,2-diamine], the MIC in assay [1] (setting [5]) worked out at 14 µg/mL (≈ 31 µM); in assay [2] (setting [6]) it was 7 µg/mL (≈ 15.5 µM).

As for `NCCC1CCC(CNc2cc(C(F)(F)F)cc3c2Nc2ccccc2S3)CC1` (stereo not shown) [compound 179, N-((4-(2-aminoethyl)cyclohexyl)methyl)-3-(trifluoromethyl)-10H-phenothiazin-1-amine], the values for the MIC in assay [1] (setting [5]) and in assay [2] (setting [6]) were 12 µg/mL (≈ 28.5 µM) and 3 µg/mL (≈ 7.12 µM), respectively.

For the compound `CN(C)CCCN1c2ccccc2Sc2cc(-c3cc4cc(C#N)ccc4[nH]3)ccc21.O=C(O)C(F)(F)F` [compound 151, 2-(10-(3-(dimethylamino)propyl)-10H-phenothiazin-3-yl)-1H-indole-5-carbonitrile 2,2,2-trifluoroacetate salt], the MIC in assay [1] (setting [5]) was > 100 µg/mL; in assay [2] (setting [6]), 3 µg/mL.

As for `CC1CC(C)N1c1ccc2c(c1)Sc1cc(C(F)(F)F)cc(NC3CCN(CCN)CC3)c1N2.Cl` (stereo not shown) [compound 337, N-(1-(2-aminoethyl)piperidin-4-yl)-7-(2,4-dimethyl-azetidin-1-yl)-3-(trifluoromethyl)-10H-phenothiazin-1-amine hydrochloride], the values for the MIC in assay [3] and in assay [1] (setting [5]) were 2 µg/mL and 4 µg/mL, respectively. In assay [4], the half-maximal inhibitory concentration (IC50) is 26 µM.

As for `FC(F)(F)c1cc(NC2CCNCC2)c2c(c1)Sc1cc(-c3cc4ccccc4[nH]3)ccc1N2` [compound 243, 7-(1H-indol-2-yl)-N-(piperidin-4-yl)-3-(trifluoromethyl)-10H-phenothiazin-1-amine], in assay [2] (setting [6]), the minimal inhibitory concentration (MIC) was determined as 15 µg/mL (≈ 31.2 µM). In assay [4], this compound yielded an IC50 of 39 µM.

As for `Nc1cc(C(F)(F)F)cc2c1Nc1ccc(-c3cc4ccccc4[nH]3)cc1S2` [compound 205, 7-(1H-indol-2-yl)-3-(trifluoromethyl)-10H-phenothiazin-1-amine], the minimal inhibitory concentration (MIC) in assay [2] (setting [6]) is 25 µg/mL (≈ 62.9 µM). Further, in assay [4], it took 364 µM to reach half-maximal inhibition (IC50).

Consider `Cl.NCCNCCCNc1cc(C(F)(F)F)cc2c1Nc1ccc(Br)cc1S2` [compound 298, N1-(2-aminoethyl)-N3-(7-bromo-3-(trifluoromethyl)-10H-phenothiazin-1-yl)propane-1,3-diamine], for which the MIC in assay [3] and in assay [1] (setting [5]) was 8 µg/mL each time. The compound further returned a concentration for half-maximal inhibition (IC50) in assay [4] of 14 µM.

On to `Cl.Cl.NCCN(CCN)CCN1CCC(Nc2cc(C(F)(F)F)cc3c2Nc2ccc(Br)cc2S3)CC1` [compound 331, N1-(2-aminoethyl)-N1-(2-(4-((7-bromo-3-(trifluoromethyl)-10H-phenothiazin-1-yl)amino)piperidin-1-yl)ethyl)ethane-1,2-diamine hydrochloride], for which the MIC in assay [3] was determined as 4 µg/mL; in assay [1] (setting [5]), 8 µg/mL. 5.1 µM corresponded to half-maximal inhibition in assay [4] (IC50).

`CC1CCCCN1c1ccc2c(c1)Sc1cc(C(F)(F)F)cc(NC3CCN(CCN)CC3)c1N2.Cl.Cl.Cl` (stereo not shown) [compound 314, N-(1-(2-aminoethyl)piperidin-4-yl)-7-(2-methyl-piperidin-1-yl)-3-(trifluoromethyl)-10H-phenothiazin-1-amine hydrochloride]: the minimal inhibitory concentration (MIC) in assay [3] stood at 4 µg/mL; in assay [1] (setting [5]) it was 8 µg/mL. Besides, the IC50 in assay [4] was found to be 30 µM.

As to `CC1CCN(c2ccc3c(c2)Sc2cc(C(F)(F)F)cc(NC4CCN(CCN)CC4)c2N3)C1.Cl.Cl` (stereo not shown) [compound 311, N-(1-(2-aminoethyl)piperidin-4-yl)-7-(3-methyl-pyrrolidin-1-yl)-3-(trifluoromethyl)-10H-phenothiazin-1-amine hydrochloride], the minimum inhibitory concentration (MIC) in assay [3] is 2 µg/mL; in assay [1] (setting [5]), 8 µg/mL. In addition, in assay [4], the IC50 came out at 2.5 µM.

With `NCCN1CCC(Nc2cc(C(F)(F)F)cc3c2Nc2ncccc2S3)CC1` [compound 268, N-(1-(2-aminoethyl)piperidin-4-yl)-7-(trifluoromethyl)-10H-benzo[b] pyrido[2,3-e] [1,4]thiazin-9-amine], the minimum inhibitory concentration (MIC) in assay [3] was 8 µg/mL (≈ 19.5 µM); in assay [1] (setting [5]), 4 µg/mL (≈ 9.77 µM). The compound further yielded a half-inhibitory concentration (IC50) in assay [4] of 31 µM.

Regarding `N#Cc1ccc2c(c1)Sc1cc(N3CCN(CCN)CC3)ccc1N2CCCN` [compound 292, 7-(4-(2-aminoethyl)piperazin-1-yl)-10-(3-aminopropyl)-10H-phenothiazine-3-carbonitrile trifluoro acetic acid], the MIC was 128 µg/mL (≈ 313 µM) in assay [3] and > 128 µg/mL in assay [1] (setting [7]). The compound also gave a half-maximal inhibitory concentration (IC50) in assay [4] of 140 µM.

For `Cl.NCCNCCCNc1cc(C(F)(F)F)cc2c1Nc1ccccc1S2` [compound 297, N1-(2-aminoethyl)-N3-(3-(trifluoromethyl)-10H-phenothiazin-1-yl)propane-1,3-diamine hydrochloride], the MIC in assay [3] is 16 µg/mL; in assay [1] (setting [5]) it was 32 µg/mL. The compound also came in with an IC50 in assay [4] of 43 µM.

Turning to `CC1CCN(c2ccc3c(c2)Sc2cc(C(F)(F)F)cc(NC4CCN(CCN)CC4)c2N3)C1C.Cl` (stereo not shown) [compound 336, N-(1-(2-aminoethyl)piperidin-4-yl)-7-(2,3-dimethyl-pyrrolidin-1-yl)-3-(trifluoromethyl)-10H-phenothiazin-1-amine hydrochloride], the MIC in assay [3] turned out to be 1 µg/mL; in assay [1] (setting [5]), 4 µg/mL. Further, in assay [4], the IC50 was found to be 19 µM.

For `NCCN1c2ccccc2Sc2cc(-c3cc4ccccc4[nH]3)ccc21` [compound 213, 2-(3-(1H-indol-2-yl)-10H-phenothiazin-10-yl)ethanamine], the MIC in assay [1] (setting [5]) turned out to be 23 µg/mL (≈ 64.3 µM); in assay [2] (setting [6]), 3 µg/mL (≈ 8.39 µM).

Regarding `OCC1CCC(Nc2cc(C(F)(F)F)cc3c2Nc2ccccc2S3)CC1` (stereo not shown) [compound 192, (4-((3-(trifluoromethyl)-10H-phenothiazin-1-yl)amino)cyclohexyl) methanol], the MIC in assay [2] (setting [6]) came to 6 µg/mL (≈ 15.2 µM).

The record behind these values is US11130741B2 (Bioimics AB, priority 2016, dated 2021).
